The compounds below were run against T1, CDK2/Cyclin E complex (Homo sapiens, UniProt P24941) (assay: CDK2/Cyclin E fluorescence-based microfluidic mobility shift assay (CDK2 Biochemical Caliper Assay)). Conditions: read-out: Biochemical CDK2/CyclinE Caliper IC50.
T1 construct: purchased Eurofins 14-475
Summary of the method: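 Wild-type CDK2/Cyclin E was preincubated with compound and ATP for 30 min at RT before the 5-FAM-QSPKKG peptide was added. Final concentrations were 0.1 nM enzyme, 2000 uM ATP, 1.5 uM peptide and 1% DMSO. After 20 hr at RT and EDTA stop, substrate conversion was read by microfluidic mobility shift over an 11-point, 3-fold dilution series.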
In the case of `Cc1cc(CC(=O)Nc2cc([C@H]3CC[C@@H](OC(N)=O)C3)[nH]n2)on1` (racemic) [Example 4], the IC50 is reported as 250 to 1000 nM.
Work on `Cc1cc(CC(=O)Nc2cc([C@@H]3CCC[C@H](OC(=O)NC4(C)CC4)CC3)[nH]n2)on1` (single isomer, unassigned) [Example 24] yielded an IC50 of 100 to 250 nM.
With `Cc1cc(CC(=O)Nc2cc([C@H]3CC[C@@H](CC(=O)NC4(C)CC4)C3)[nH]n2)on1` (single isomer, unassigned) [Example 28] the IC50 was 1000 to 100000 nM.
For `Cc1cc(CC(=O)Nc2cc([C@@H]3CC[C@@H](CC(=O)NC4(C)CC4)C3)[nH]n2)on1` (single isomer, unassigned) [Example 31], the IC50 was 1000 to 100000 nM.

Each compound was assayed against target tagged with nanoLuciferase in 293-NB2 cells (Homo sapiens, UniProt P24941) (assay: nanoBRET TE Intracellular Kinase Assay (Cell nanoBRET Assay)). Conditions: not given.
Format: cell-based
Description: Compounds described herein were also tested in a nanoBRET TE Intracellular Kinase Assay. Test compounds were prepared in a DMSO stock solution. 45 uL of stock solution was transferred to a 384 well plate (Greiner, 781201), and a 3-fold 11-point dilution was performed. 293-NB2 cells expressing target tagged with nanoLuciferase were diluted in cell growth media (DMEM+10% FBS+1% Pen/Strep media) and a 40 uL cell solution of 7.5E4 cells/mL was seeded in a separate 384 well cell culture plate and incubated overnight at 37° C./5% CO2/100% humidity. […] 80 nL of each concentration of compound was transferred from the compound plate to a corresponding well in the cell culture plate by Echo550 liquid handler. The plates were incubated for 2 hrs at 37° C./5% CO2/100% humidity. […] Chemiluminescence was then read on an EnVision reader (PerkinElmer).
`Cc1cc(CC(=O)Nc2cc([C@H]3CC[C@@H](OC(N)=O)C3)[nH]n2)on1` (racemic) [Example 4] was tested, and the IC50 was 1000 to 100000 nM.
`Cc1cc(CC(=O)Nc2cc([C@@H]3CCC[C@H](OC(=O)NC4(C)CC4)CC3)[nH]n2)on1` (single isomer, unassigned) [Example 24] was tested, and the IC50 was 250 to 1000 nM.
In the case of `Cc1cc(CC(=O)Nc2cc([C@H]3CC[C@@H](CC(=O)NC4(C)CC4)C3)[nH]n2)on1` (single isomer, unassigned) [Example 28], the IC50 is reported as 1000 to 100000 nM.
Compound `Cc1cc(CC(=O)Nc2cc([C@@H]3CC[C@@H](CC(=O)NC4(C)CC4)C3)[nH]n2)on1` (single isomer, unassigned) [Example 31] has an IC50 of 1000 to 100000 nM.

Each compound was assayed on CDK2-independent (SKOV3, COV504, COV644) versus CDK2-dependent (COV318, OVCAR3, HCC1569) cell lines (assay: Cell proliferation selectivity assay (CyQUANT Direct Cell Proliferation Assay)). Conditions: mean of IC50 ratios between each CDK2-independent versus CDK2-dependent cell line; 120 hours incubation.
Format: cell-based
Description: Compounds described herein were also tested in cell proliferation selectivity assays. OVCAR3, HCC1569, and SKOV3 cell lines were obtained from ATCC and cultured as recommended by supplier. COV318, COV504, and COV644 cell lines were obtained from Sigma-Aldrich and were cultured as recommended by supplier. The genetic background and dependency of each cell line was determined using publicly available databases: cBioPortal and DepMap. […] All six cell lines are CDK1-dependent given that CDK1 is an essential gene. Proliferation assay was carried out by seeding cells into 384-well plates at predetermined density (ranging from 150 to 1500 cells per well) in corresponding culture media, followed by brief centrifugation at 1000×g, and culturing cells for 24 hours at 37° C., 5% CO2. The following day, compounds were serially diluted (1l-point, 3-fold dilution scheme with 20 μM as top concentration) and dispensed directly onto cells using Echo 555 acoustic liquid handler (Labcyte). The cells were incubated with the compounds at 37° C., 5% CO2 for 120 hours. Relative number of viable cells in each well was determined using CyQUANT Direct Cell Proliferation Assay Kit (Invitrogen) per manufacturers protocol. The plates were read on EnVision 2105 multimode plate reader (Perkin Elmer) using FITC filter set. Dose response curve fitting and IC50 calculation was done using Genedata Screener software. Proliferation selectivity (i.e. selectivity index) for individual compound was derived as a mean of its IC50 ratios between each CDK2-independent versus CDK2-dependent cell line.
For `CC(C)NC(=O)O[C@@H]1CC[C@H](c2cc(Nc3ncnc4ncccc34)n[nH]2)C1` (single isomer, unassigned) [Example I-4], the “Proliferation selectivity Index” value was 45.05.
In the case of `COCc1cc2c(Nc3cc([C@H]4CC[C@@H](OC(=O)NC(C)C)C4)[nH]n3)nccn2n1` (single isomer, unassigned) [Example I-10], the “Proliferation selectivity Index” value is reported as 24.36.
With `CC(C)NC(=O)O[C@@H]1CC[C@H](c2cc(Nc3nccc4nccn34)n[nH]2)C1` (single isomer, unassigned) [Example I-11] the “Proliferation selectivity Index” value was 24.26.
For `CC(C)NC(=O)O[C@@H]1CC[C@H](c2cc(Nc3nccn4nccc34)n[nH]2)C1` (single isomer, unassigned) [Example I-17], the “Proliferation selectivity Index” value was 21.85.
For `COCc1nc2ccnc(Nc3cc([C@@H]4CC[C@H](OC(=O)NC(C)C)C4)[nH]n3)c2s1` (single isomer, unassigned) [Example I-19], the “Proliferation selectivity Index” value was 20.52.
In the case of `CC(C)NC(=O)O[C@H]1CC[C@@H](c2cc(Nc3ncnc4ncccc34)n[nH]2)C1` (single isomer, unassigned) [Example I-20], the “Proliferation selectivity Index” value is reported as 20.15.
`Cc1cc(CC(=O)Nc2cc([C@@H]3CC[C@H](Oc4nscc4C4CC4)C3)[nH]n2)on1` (single isomer, unassigned) [Example I-21] was tested, and the “Proliferation selectivity Index” value was 19.98.
For `CC(C)NC(=O)O[C@@H]1CC[C@H](c2cc(Nc3ncnc4ncsc34)n[nH]2)C1` (single isomer, unassigned) [Example I-24], the “Proliferation selectivity Index” value was 19.46.
`CC(C)NC(=O)O[C@H]1CC[C@@H](c2cc(Nc3nccc4ncsc34)n[nH]2)C1` (single isomer, unassigned) [Example I-28] was tested, and the “Proliferation selectivity Index” value was 18.45.
With `COCc1cc2c(Nc3cc([C@H]4C[C@@H](OC(=O)N[C@@H](C)CC(F)(F)F)CO4)[nH]n3)nccn2n1` (single isomer, unassigned) [Example I-33] the “Proliferation selectivity Index” value was 17.57.
`COCc1cc2c(Nc3cc([C@H]4C[C@@H](OC(=O)N[C@]5(C)CC5(F)F)CO4)[nH]n3)nccn2n1` (single isomer, unassigned) [Example I-34] was tested, and the “Proliferation selectivity Index” value was 17.33.
`CC[C@H](C)NC(=O)O[C@H]1CO[C@@H](c2cc(Nc3ccc4c(n3)C(C)(C)NC4=O)n[nH]2)C1` [Example I-1] was tested, and the “Proliferation selectivity Index” value was 54.25.
In the case of `COCc1cc2c(Nc3cc([C@H]4C[C@@H](OC(=O)N5CCC5(C)C)CO4)[nH]n3)nccn2n1` [Example I-2], the “Proliferation selectivity Index” value is reported as 51.61.
In the case of `C[C@H](NC(=O)O[C@H]1CO[C@@H](c2cc(Nc3ccc4c(n3)C(C)(C)NC4=O)n[nH]2)C1)C1CC1` [Example I-3], the “Proliferation selectivity Index” value is reported as 45.44.
`CC1(NC(=O)O[C@H]2CO[C@@H](c3cc(Nc4ccn5nccc5n4)n[nH]3)C2)CC1` [Example I-5] was tested, and the “Proliferation selectivity Index” value was 32.74.
For `C=C(C)c1ccncc1O[C@H]1CC[C@@H](c2cc(NC(=O)Cc3cc(C)no3)n[nH]2)C1` [Example I-6], the “Proliferation selectivity Index” value was 31.48.
With `CC1(NC(=O)O[C@@H]2CO[C@H](c3cc(Nc4nccc5nccn45)n[nH]3)C2)CC1` [Example I-7] the “Proliferation selectivity Index” value was 27.71.
With `CC1(NC(=O)O[C@H]2CO[C@@H](c3cc(Nc4ccc5nccn5n4)n[nH]3)C2)CC1` [Example I-8] the “Proliferation selectivity Index” value was 27.56.
`COCc1cc2c(Nc3cc([C@H]4C[C@@H](OC(=O)N[C@@H](C)C(F)(F)F)CO4)[nH]n3)nccn2n1` [Example I-9] was tested, and the “Proliferation selectivity Index” value was 24.63.
In the case of `COCC1(NC(=O)O[C@@H]2CO[C@H](c3cc(NC(=O)c4cc(COC(F)(F)F)nn4C)n[nH]3)C2)CC1` [Example I-12], the “Proliferation selectivity Index” value is reported as 23.98.
With `C[C@H](NC(=O)O[C@@H]1CO[C@H](c2cc(NC(=O)c3cc(COC(F)(F)F)nn3C)n[nH]2)C1)C1CC1` [Example I-13] the “Proliferation selectivity Index” value was 23.74.
With `Cn1ncc2cnc(Nc3cc([C@H]4C[C@@H](OC(=O)NC5(C)CC5)CO4)[nH]n3)cc21` [Example I-14] the “Proliferation selectivity Index” value was 23.53.
For `COCc1cc2c(Nc3cc([C@H]4C[C@@H](OC(=O)NC5(CC(F)(F)F)CC5)CO4)[nH]n3)nccn2n1` [Example I-15], the “Proliferation selectivity Index” value was 23.43.
For `COCc1nc2ccnc(Nc3cc([C@H]4C[C@@H](OC(=O)NC(C)C)CO4)[nH]n3)c2s1` [Example I-16], the “Proliferation selectivity Index” value was 22.96.
In the case of `Cn1nc(COC(F)(F)F)cc1C(=O)Nc1cc([C@@H]2C[C@H](OC(=O)NC3(C)CC3)CO2)[nH]n1` [Example I-18], the “Proliferation selectivity Index” value is reported as 21.63.
For `CC(C)NC(=O)OC[C@H]1C[C@@H](c2cc(Nc3nccc4ncsc34)n[nH]2)C1` [Example I-22], the “Proliferation selectivity Index” value was 19.69.
In the case of `COCc1cc2c(Nc3cc([C@H]4C[C@@H](OC(=O)N[C@H](C)C(F)(F)F)CO4)[nH]n3)nccn2n1` [Example I-23], the “Proliferation selectivity Index” value is reported as 19.67.
`Cn1nc(COC(F)(F)F)cc1C(=O)Nc1cc([C@@H]2C[C@H](OC(=O)NC3(C)COC3)CO2)[nH]n1` [Example I-25] was tested, and the “Proliferation selectivity Index” value was 18.78.
With `COCc1cc2c(Nc3cc([C@@H]4C[C@H](Oc5nncn5C(C)(C)C)CO4)[nH]n3)nccn2n1` [Example I-26] the “Proliferation selectivity Index” value was 18.65.
With `CC(C)NC(=O)OC[C@H]1C[C@@H](c2cc(NC(=O)c3cc(COC(F)(F)F)nn3C)n[nH]2)C1` [Example I-27] the “Proliferation selectivity Index” value was 18.56.
With `COCc1cc2c(Nc3cc([C@H]4C[C@@H](OC(=O)NC(C)(C)C#N)CO4)[nH]n3)nccn2n1` [Example I-29] the “Proliferation selectivity Index” value was 18.45.
In the case of `Cn1nc(OCC(F)F)cc1C(=O)Nc1cc([C@H]2C[C@@H](OC(=O)NC34CC(C3)C4)CO2)[nH]n1` [Example I-30], the “Proliferation selectivity Index” value is reported as 18.27.
In the case of `CC1(NC(=O)O[C@H]2CO[C@@H](c3cc(Nc4nccc5nccn45)n[nH]3)C2)CC1` [Example I-31], the “Proliferation selectivity Index” value is reported as 17.88.
`CC(C)NC(=O)O[C@@H]1CO[C@H](c2cc(Nc3nccc4ncsc34)n[nH]2)C1` [Example I-32] was tested, and the “Proliferation selectivity Index” value was 17.60.
With `CCC1(NC(=O)O[C@H]2CO[C@@H](c3cc(Nc4nccn5nc(COC)cc45)n[nH]3)C2)CC1` [Example I-35] the “Proliferation selectivity Index” value was 17.20.
With `C#CC1(NC(=O)O[C@H]2CO[C@@H](c3cc(Nc4nccn5nc(COC)cc45)n[nH]3)C2)CC1` [Example I-36] the “Proliferation selectivity Index” value was 16.79.
With `COCc1cc2c(Nc3cc([C@H]4C[C@@H](Oc5nncn5C5(C(F)(F)F)CC5)CO4)[nH]n3)nccn2n1` [Example I-37] the “Proliferation selectivity Index” value was 16.55.
For `COCc1cc2c(Nc3cc([C@H]4C[C@@H](OC(=O)NC(C)C)CO4)[nH]n3)nccn2n1` [Example I-38], the “Proliferation selectivity Index” value was 16.55.
For `CC(C)n1cnnc1OC[C@H]1C[C@@H](c2cc(Nc3nccn4nccc34)n[nH]2)C1` [Example I-39], the “Proliferation selectivity Index” value was 16.17.
For `COCc1cc2c(Nc3cc([C@@H]4C[C@H](Oc5nncn5C5(C)CC5)CO4)[nH]n3)nccn2n1` [Example I-40], the “Proliferation selectivity Index” value was 16.06.
`CC(C)NC(=O)O[C@H]1CO[C@@H](c2cc(Nc3nccc4ncsc34)n[nH]2)C1` [Example I-41] was tested, and the “Proliferation selectivity Index” value was 15.98.
`COCc1cc2c(Nc3cc([C@H]4C[C@@H](OC(=O)NC(C)(C)C(F)(F)F)CO4)[nH]n3)nccn2n1` [Example I-42] was tested, and the “Proliferation selectivity Index” value was 15.77.

Reference: patent publication US20240190855A1 (Relay Therapeutics, Inc., priority 2021, published 2024)
